Marks after values point to notes of the source that are not given here.
Key:
[1] = system: Ehrlich ascites carcinoma (EAC); experiment: Ehrlich ascites carcinoma (EAC) mouse model; type: in vivo
From the text: 10 male outbred mice (5 mice per group) at the age of 10 weeks, weighing 19-23 g were used in Ehrlich ascites carcinoma (EAC) model. Before the experiment, all the animals were healthy, with normal behavioral performance. During the experiment, the animals were kept in plastic cages under natural light illumination, on a standard diet with free access to food and water. An ascites strain of mouse breast cancer (EAC) maintained in outbred mice was used in the experiment. To inoculate the strain, the tumor cells derived from the ascitic fluid were placed in saline solution. The suspension cellularity was evaluated in the hemocytometer and adjusted to a concentration of 1×10^6 cells/ml with saline solution. The tumor was transplanted by injecting […] of the tumor cell suspension (0.25×10^6 cells/mouse) into the abdominal cavity of the animals.
The animals were divided into groups as follows: • Group No 1—control group, mice with EAC+solvent (deuterium-depleted water (this water contains deuterium at a level of 10 ppm)); • Group No 2−mice with EAC+^64Zne aspartate.
The solution comprising ^64Zne aspartate was injected intraperitoneally using a microinjection syringe at a dose of 0.075 mg (75 μg)/mouse every other day (5 times during 10 days) starting from the first day after injection in a volume of 0.5 ml/mouse. […] On the 13th day after i.p. inoculation of tumor cells, the whole ascites fluid was recovered from the animals and the total number of live/dead cells in each mouse was determined. Deuterium-depleted water alone was used instead of a solution of ^64Zne aspartate as control in the experiment.
The dynamics of formation of ascites in the control and experimental groups was assessed visually using a 10-point scale (one point was 0.46 cm of the mean diameter of the mouse abdomen filled with ascites).
In addition, on the 13th day after intraperitoneal inoculation of tumor cells, all ascetic fluid was removed from the abdomens in all animals from each group by washing their peritoneal cavities with saline solution and live and dead tumor cells were counted using the traditional vital dye trypan blue (HyClon, USA) and a hemocytometer.
The number of cells was determined using the following formula: X=((a)/80)×10^6, where X is the number of cells in 1 ml and a is the number of cells counted in 80 small squares of the hemocytometer.

[2] = system: normal rat kidney cells (NRK line); experiment: Immunocytochemistry of NRK cells; type: cell-based
Procedure: When making the immunocytochemistry (ICC) assay, cells on microscope glasses (cytospin preparations) were fixed in the solution (methanol+acetone 1:1) for 2 hours at t 20° C. and incubated with 1% solution of bovine serum albumin (BSA) for 20 minutes. Then the monoclonal antibodies-CD44 (Diagnostic BioSystems), E-cadherin (ThermoScientific), N-cadherin (NeoMarker, BioLegend), SLUG (GeneTex)—were applied for the time period specified by the manufacturer (30 to 60 minutes), after which the Poly Vue imaging system conjugated with peroxidase was used and the enzyme activity was detected using diaminobenzidine (ThermoScientific) as a substrate. After the immunocytochemical reaction the preparations were washed with water and counterstained with hematoxylin-eosin (for 15 to 30 seconds).
The results were analyzed by counting cells with expression (brown colored cells) using a light microscope, and were assessed using the classical H-Score method: S=1×A+2×B+3×C, where S is the H-Score index giving a range of 0 (protein is not detected) to 300 (high-level expression in 100% of the cells); A is the percentage of weakly staining cells, B is the percentage of moderately staining cells and C is the percentage of strongly staining cells.

[3] = system: healthy human skin cells (HaCaT cell line); experiment: Scratch assay, HaCaT cells; type: cell-based; settings: ^64Zn 25 mcg/ml; equal to control
Procedure: The cells of A-549, A-431, NRK, HaCaT, MM-4, normal fibroblasts (derived from the Bank of Cell Lines from human and animal tissues, R. E. Kavetsky Institute of Experimental Pathology, Oncology and Radiobiology, National Academy of Sciences of Ukraine) were cultured in complete culture medium RPMI 1640/DMEM (PAA, Austria) (depending on the cell type) supplemented with 10% fetal calf serum (PAA, Austria) and incubated in 5% CO2 humidified atmosphere at 37° C. The culture medium was replaced in 2 to 3 days and the cells were passaged in 4 to 5 days.
Analysis of the influence of the components under study on the cell migration rate was performed using the scratch assay method. […]
The plate was incubated in a CO2 incubator for additional 48 hours. After the cells formed a dense monolayer it was damaged (by making a “scratch”) and the growth medium was replaced to remove cell debris and smooth the edges of the “scratch.” The rate of cell migration was analyzed using an inverted microscope and by photographing cells in the area of injury. The migration activity of cells was fixed at several time points (depending on the cell line analyzed). The microphotomicrographs were analyzed and the cell incubation time needed to restore the monolayer was determined for all experimental groups. […]

Compound | suppression of growth of Ehrlich ascites carcinoma ([1]; after 5 injections) | Volume of ascites in mice ([1]; day 7 after inoculation, 75 μg/mouse i.p. every other day x5) | Volume of ascites in mice ([1]; day 9, 75 μg/mouse i.p. x5) | Volume of ascites in mice ([1]; day 11, 75 μg/mouse i.p. x5) | Number of dead cells/mouse ([1]; day 13, 75 μg/mouse i.p.) | Number of live cells/mouse (M ± m) ([1]; day 13, 75 μg/mouse i.p.) | Volume of ascites (M ± m) ([1]; day 13, 75 μg/mouse i.p.) | Volume of ascites in mice ([1]; day 13, 75 μg/mouse i.p. x5) | phenotype of normal cells [2] | time of monolayer healing [3]
NC(CC(=O)[O-])C(=O)[O-].[64Zn+2] (racemic) [^64Zne aspartate, ^64Zn aspartate (racemic)] | 100% | 0* points | 0** points | 0* points | 0 | 0* cells/mouse | 0* ml/mouse | 0** points |  | 
O=S(=O)([O-])[O-].[64Zn+2] [^64Zn] |  |  |  |  |  |  |  |  | has not changed | 36 h

From patent US10857180B2, “Pharmaceutical composition for improving health, cure abnormalities and degenerative disease, achieve anti-aging effect of therapy and therapeutic effect on mammals and method thereof” (priority 2014, dated 2020)
